Where two headings read alike, the source gives them in different places.
Legend:
[1] = test system: MSI-H colorectal cancer SW48 cell line; test: 2D anti-proliferative activity, MSI-H SW48 cells (CTG, 5 days); type: cell-based; settings: for inhibition at 38.15 pM: 0.038146973 nM; for inhibition at 0.000152588 µM: 0.152587891 nM; for inhibition at 0.000610352 µM: 0.610351563 nM; for inhibition at 0.00244141 µM: 2.44140625 nM; for inhibition at 0.00976562 µM: 9.765625 nM; for inhibition at 0.0390625 µM: 39.0625 nM; for inhibition at 0.15625 µM: 156.25 nM; for inhibition at 0.625 µM: 625 nM; for inhibition at […]: 2500 nM; for inhibition at 10 µM: 10000 nM
How it was run: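 SW48 cells in RPMI 1640/10% FBS were exposed to serially varied compound concentrations for 5 days at 37 °C, 5% CO2. Viability was read as ATP-dependent CellTiter-Glo luminescence after 30 min.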

[2] = test system: MSS colorectal cancer HT-29 cell line; test: 2D anti-proliferative activity, MSS HT-29 cells (CTG, 5 days); type: cell-based; settings: Homo sapiens, 120 h
How it was run: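 HT-29 cells in McCoy's 5A with 10% FBS exposed to compound for 5 days at 37° C, 5% CO2 in 384-well format. Viable cells read as ATP luminescence (CellTiter-Glo) after 30 min.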

[3] = Liver microsome stability test; type: in vitro ADME; settings: human liver microsomes 0.5 mg/mL, compound 1 μM, NADPH 1 mM, 60 minutes
[4] = Caco-2 membrane permeability assay; type: in vitro ADME; settings: human; Caco-2, apical pH 6.5, basolateral pH 7.4
Description: The membrane permeability of the molecule of the present disclosure was evaluated. Samples were analyzed by LC-MS to estimate the apparent permeability coefficient (Papp) of the compounds across Caco-2 cell monolayers, with the apical chamber at pH 6.5 and the basolateral chamber at pH 7.4. Active efflux transport of compounds can be blocked using inhibitors of P-gp efflux transporter, BCRP, and MRP2 (50 μM quinidine, 30 μM benzbromarone, and 20 μM sulfasalazine). The data were used to determine apparent permeability (Papp).
[formula] • where VA is the volume of the receptor pore (in mL), Area is the surface area of the membrane (0.143 cm^2 for Transwell-96 well permeable scaffolds), and time is the total transport time (in seconds).

[5] = test system: SW 48 (MSI-H) colorectal cancer cells; test: In vivo pharmacodynamic assay, SW48 xenograft in nude mice; design: species or system BALB/c nude mice; settings: 50 mg/kg, QD, oral
Description: In vivo pharmacodynamic assay in BALB/c nude mice. Details are as follows:
SW 48 (MSI-H) colorectal cancer cells were cultured (L15 medium with 10% fetal bovine serum), and then inoculated into 6-8-week old female BALB/c nude mice (weighing about 20 g), wherein all mice were inoculated subcutaneously. The mice were cultured in an SPF-grade experimental environment, and all mice had free access to commercially certified standard diets. When the average tumor volume of the mice grew to about 150 mm^3, the test compound was orally administered daily. The dosage was as follows: blank group vehicle (10% HP-β-CD aqueous solution, pH-7). The dosage of the administration group was 120 mg/kg, 50 mg/kg, or 20 mg/kg, once a day. The tumor volume was measured with a two-dimensional caliper three times a week, and the animals were weighed every day. […] The tumor volume was calculated using the formula: V=½a*b^2, where a represents the long diameter of the tumor, and b represents the short diameter of the tumor.

[6] = Homo sapiens, read-out: Average value/ Inhibition rate
[7] = Homo sapiens, read-out: Test 1/ Inhibition rate
[8] = Homo sapiens, read-out: Test 2/ Inhibition rate

For CCc1c(N2CCN(C(=O)c3ncnc(C)c3O)CC2)c(=O)n2nc(C3=CCOCC3)nc2n1CC(=O)Nc1ccc(C(F)(F)F)c2ccoc12 [Compound H22], the “inhibitory activity on SW48 cells” value ([1]; 39 nM) was “high inhibitory activity”, the inhibition at 38.15 pM [1, 6] was -4.19% and the inhibition at 38.15 pM [1, 7] was -1.57%. It also gave an inhibition at 38.15 pM [1, 8] of -6.81%, an inhibition at 0.000152588 µM [1, 6] of 0.206% and an inhibition at 0.000152588 µM [1, 7] of -0.184%. It also gave an inhibition at 0.000152588 µM [1, 8] of 0.596%, an inhibition at 0.000610352 µM [1, 6] of -2.48% and an inhibition at 0.000610352 µM [1, 7] of -1.27%. For the same compound, the inhibition at 0.000610352 µM [1, 8] was -3.7%, the inhibition at 0.00244141 µM [1, 6] was -0.303% and the inhibition at 0.00244141 µM [1, 7] was 2.69%. The inhibition at 0.00244141 µM [1, 8] was -3.3%, the inhibition at 0.00976562 µM [1, 6] was -6.3% and the inhibition at 0.00976562 µM [1, 7] was -5.49%. The inhibition at 0.00976562 µM [1, 8] was -7.12%, the inhibition at 0.0390625 µM [1, 6] was 29.2% and the inhibition at 0.0390625 µM [1, 7] was 28.4%. The inhibition at 0.0390625 µM [1, 8] was 30%, the inhibition at 0.15625 µM [1, 6] was 98% and the inhibition at 0.15625 µM [1, 7] was 98.4%. For the same compound, the inhibition at 0.15625 µM [1, 8] was 97.6%, the inhibition at 0.625 µM [1, 6] was 98.1% and the inhibition at 0.625 µM [1, 7] was 98.3%. The inhibition at 0.625 µM [1, 8] was 97.9%, the inhibition at […] [1, 6] was 99.6% and the inhibition at […] [1, 7] was 99.9%. For the same compound, the inhibition at […] [1, 8] was 99.2%, the inhibition at 10 µM [1, 6] was 101% and the inhibition at 10 µM [1, 7] was 102%. The inhibition at 10 µM [1, 8] was 101%, the IC50 ([1]; Homo sapiens, 120 h, 5 days) was 47 nM and the IC50 [2] was > 10000 nM. For the same compound, the CLint scaled at 1 μM [3] was < 6.8 mL/min/kg, the microsomal CLint at 1 μM ([3]; read-out: Human Clint μL/min/mg Protein) was < 5.4 µL/min/mg and the Papp A→B [4] was 3.2 ×10⁻⁶ cm/s. The Papp B→A [4] was 21 ×10⁻⁶ cm/s, the TGI [5] was 104% and the “Tumor volume (mm^3)-D 1” value ([5]; day 1) was 162 mm^3. For the same compound, the “Tumor volume (mm^3)-D 21” value ([5]; day 21) was 89 mm^3.

Source: US20260216197A1, “WRN HELICASE INHIBITOR” (SUZHOU PUHE BIOPHARMA CO., LTD., priority 2022, published 2026)
